What was measured:
Assay in all cases: relative viability (nuclei count vs DMSO), 5 days (fraction); higher = more cells survive
[1] = compound: CC(C)N(CCCNC(=O)Nc1ccc(C(C)(C)C)cc1)C[C@H]1O[C@@H](n2ccc3c(N)ncnc32)[C@H](O)[C@@H]1O + Cc1nc(Nc2ncc(C(=O)Nc3c(C)cccc3Cl)s2)cc(N2CCN(CCO)CC2)n1 [Dasatinib] (partner 0.075 µM)
Summary of the method: (§1)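 Relative viability was taken as the ratio of nuclei in treated wells to nuclei in vehicle wells. Lung cancer cell lines in 1536-well plates received compounds by pin tool one day after seeding, either one drug alone or a fixed anchor-drug dose plus five library-drug doses (not always all listed) in √10 steps. Nuclei were counted on 4× images after 5 days of treatment, and values are medians of duplicate plates.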

[2] = compound: CC(C)=CC[C@@H](O)C1=CC(=O)c2c(O)ccc(O)c2C1=O [Shikonin] + Nc1ncn([C@H]2C[C@H](O)[C@@H](CO)O2)c(=O)n1 [Decitabine] (partner 2 µM)
Summary of the method: as §1

[3] = compound: CC(C)N(CCCNC(=O)Nc1ccc(C(C)(C)C)cc1)C[C@H]1O[C@@H](n2ccc3c(N)ncnc32)[C@H](O)[C@@H]1O + CCNC(=O)c1noc(-c2cc(C(C)C)c(O)cc2O)c1-c1ccc(CN2CCOCC2)cc1 [Luminespib] (partner 0.01 µM)
Summary of the method: as §1

[4] = compound: CC(C)=CC[C@@H](O)C1=CC(=O)c2c(O)ccc(O)c2C1=O [Shikonin] + CC(C)C[C@H](NC(=O)[C@H](Cc1ccccc1)NC(=O)c1cnccn1)B(O)O [Bortezomib] (partner 0.002 µM)
Summary of the method: as §1

With NCI-H1993 the relative viability ([1]; first compound 0.08 µM) was 0.476, the relative viability ([1]; first compound 2.53 µM) was 0.768 and the relative viability ([1]; first compound 8 µM) was 0.718. It also gave a relative viability ([2]; first compound 0.01 µM) of 0.668, a relative viability ([2]; first compound 0.1 µM) of 0.592 and a relative viability ([2]; first compound 0.3162 µM) of 0.632. It also gave a relative viability ([2]; first compound 1 µM) of 0.555, a relative viability ([3]; first compound 0.08 µM) of 0.707 and a relative viability ([3]; first compound 2.53 µM) of 0.927. For the same cell line, the relative viability ([3]; first compound 8 µM) was 0.84, the relative viability ([4]; first compound 0.1 µM) was 1.19 and the relative viability ([4]; first compound 0.3162 µM) was 1.09. It also gave a relative viability ([4]; first compound 1 µM) of 1.03.
With NCI-H2009 the relative viability ([1]; first compound 0.08 µM) was 0.261, the relative viability ([1]; first compound 0.253 µM) was 0.281 and the relative viability ([1]; first compound 0.8 µM) was 0.273. For the same cell line, the relative viability ([1]; first compound 2.53 µM) was 0.288, the relative viability ([1]; first compound 8 µM) was 0.295 and the relative viability ([2]; first compound 0.01 µM) was 0.335. The relative viability ([2]; first compound 0.1 µM) was 0.399, the relative viability ([2]; first compound 0.3162 µM) was 0.399 and the relative viability ([2]; first compound 1 µM) was 0.222. For the same cell line, the relative viability ([3]; first compound 0.08 µM) was 0.977, the relative viability ([3]; first compound 0.253 µM) was 0.861 and the relative viability ([3]; first compound 0.8 µM) was 1.08. The relative viability ([3]; first compound 2.53 µM) was 1.02, the relative viability ([3]; first compound 8 µM) was 0.884 and the relative viability ([4]; first compound 0.01 µM) was 1.07. For the same cell line, the relative viability ([4]; first compound 0.1 µM) was 1.11, the relative viability ([4]; first compound 0.3162 µM) was 0.904 and the relative viability ([4]; first compound 1 µM) was 0.289.
For NCI-H2023, the relative viability ([1]; first compound 0.08 µM) was 0.503, the relative viability ([1]; first compound 0.253 µM) was 0.668 and the relative viability ([1]; first compound 0.8 µM) was 0.602. It also gave a relative viability ([1]; first compound 2.53 µM) of 0.662, a relative viability ([1]; first compound 8 µM) of 0.55 and a relative viability ([2]; first compound 0.01 µM) of 0.201. For the same cell line, the relative viability ([2]; first compound 0.1 µM) was 0.251, the relative viability ([2]; first compound 0.3162 µM) was 0.236 and the relative viability ([2]; first compound 1 µM) was 0.225. It also gave a relative viability ([3]; first compound 0.08 µM) of 0.694, a relative viability ([3]; first compound 0.253 µM) of 0.771 and a relative viability ([3]; first compound 0.8 µM) of 0.807. For the same cell line, the relative viability ([3]; first compound 2.53 µM) was 0.858, the relative viability ([3]; first compound 8 µM) was 0.621 and the relative viability ([4]; first compound 0.01 µM) was 1.05. It also gave a relative viability ([4]; first compound 0.1 µM) of 1.21, a relative viability ([4]; first compound 0.3162 µM) of 1.05 and a relative viability ([4]; first compound 1 µM) of 0.97.
With NCI-H2085 the relative viability ([1]; first compound 0.08 µM) was 0.248, the relative viability ([1]; first compound 0.253 µM) was 0.218 and the relative viability ([1]; first compound 0.8 µM) was 0.288. For the same cell line, the relative viability ([1]; first compound 2.53 µM) was 0.232, the relative viability ([1]; first compound 8 µM) was 0.26 and the relative viability ([2]; first compound 0.01 µM) was 0.528. For the same cell line, the relative viability ([2]; first compound 0.1 µM) was 0.515, the relative viability ([2]; first compound 0.3162 µM) was 0.57 and the relative viability ([2]; first compound 1 µM) was 0.532. It also gave a relative viability ([3]; first compound 0.08 µM) of 0.434, a relative viability ([3]; first compound 0.253 µM) of 0.506 and a relative viability ([3]; first compound 0.8 µM) of 0.441. It also gave a relative viability ([3]; first compound 2.53 µM) of 0.414, a relative viability ([3]; first compound 8 µM) of 0.389 and a relative viability ([4]; first compound 0.01 µM) of 1.08. It also gave a relative viability ([4]; first compound 0.1 µM) of 1.02, a relative viability ([4]; first compound 0.3162 µM) of 1.01 and a relative viability ([4]; first compound 1 µM) of 0.922.
With NCI-H2087 the relative viability ([1]; first compound 0.08 µM) was 0.876, the relative viability ([1]; first compound 0.253 µM) was 1.03 and the relative viability ([1]; first compound 0.8 µM) was 0.77. The relative viability ([1]; first compound 2.53 µM) was 1.04, the relative viability ([1]; first compound 8 µM) was 0.948 and the relative viability ([2]; first compound 0.01 µM) was 0.283. The relative viability ([2]; first compound 0.1 µM) was 0.263, the relative viability ([2]; first compound 0.3162 µM) was 0.278 and the relative viability ([2]; first compound 1 µM) was 0.294. The relative viability ([3]; first compound 0.08 µM) was 0.211, the relative viability ([3]; first compound 0.253 µM) was 0.198 and the relative viability ([3]; first compound 0.8 µM) was 0.276. For the same cell line, the relative viability ([3]; first compound 2.53 µM) was 0.16, the relative viability ([3]; first compound 8 µM) was 0.151 and the relative viability ([4]; first compound 0.01 µM) was 0.951. It also gave a relative viability ([4]; first compound 0.1 µM) of 0.888, a relative viability ([4]; first compound 0.3162 µM) of 1.14 and a relative viability ([4]; first compound 1 µM) of 0.898.
NCI-H2126 showed a relative viability ([1]; first compound 0.08 µM) of 0.616, a relative viability ([1]; first compound 0.253 µM) of 0.582 and a relative viability ([1]; first compound 0.8 µM) of 0.603. The relative viability ([1]; first compound 2.53 µM) was 0.601, the relative viability ([1]; first compound 8 µM) was 0.554 and the relative viability ([2]; first compound 0.01 µM) was 0.593. For the same cell line, the relative viability ([2]; first compound 0.1 µM) was 0.589, the relative viability ([2]; first compound 0.3162 µM) was 0.628 and the relative viability ([2]; first compound 1 µM) was 0.559. For the same cell line, the relative viability ([3]; first compound 0.08 µM) was 0.847, the relative viability ([3]; first compound 0.253 µM) was 0.814 and the relative viability ([3]; first compound 0.8 µM) was 0.941. It also gave a relative viability ([3]; first compound 2.53 µM) of 0.88, a relative viability ([3]; first compound 8 µM) of 0.925 and a relative viability ([4]; first compound 0.01 µM) of 1.16. It also gave a relative viability ([4]; first compound 0.1 µM) of 1.23, a relative viability ([4]; first compound 0.3162 µM) of 1.1 and a relative viability ([4]; first compound 1 µM) of 1.19.
Cell Line NCI-H2347 has a relative viability ([1]; first compound 0.08 µM) of 0.305, a relative viability ([1]; first compound 0.253 µM) of 0.305 and a relative viability ([1]; first compound 0.8 µM) of 0.326. For the same cell line, the relative viability ([1]; first compound 2.53 µM) was 0.296, the relative viability ([1]; first compound 8 µM) was 0.293 and the relative viability ([2]; first compound 0.01 µM) was 0.646. For the same cell line, the relative viability ([2]; first compound 0.1 µM) was 0.623, the relative viability ([2]; first compound 0.3162 µM) was 0.659 and the relative viability ([2]; first compound 1 µM) was 0.597. It also gave a relative viability ([3]; first compound 0.08 µM) of 0.578, a relative viability ([3]; first compound 0.253 µM) of 0.321 and a relative viability ([3]; first compound 0.8 µM) of 0.245. For the same cell line, the relative viability ([3]; first compound 2.53 µM) was 0.371, the relative viability ([3]; first compound 8 µM) was 0.555 and the relative viability ([4]; first compound 0.01 µM) was 1.09. For the same cell line, the relative viability ([4]; first compound 0.1 µM) was 1.11, the relative viability ([4]; first compound 0.3162 µM) was 0.848 and the relative viability ([4]; first compound 1 µM) was 1.23.
Work on NCI-H2405 yielded a relative viability ([1]; first compound 0.08 µM) of 0.193, a relative viability ([1]; first compound 0.253 µM) of 0.199 and a relative viability ([1]; first compound 0.8 µM) of 0.242. It also gave a relative viability ([1]; first compound 2.53 µM) of 0.2, a relative viability ([1]; first compound 8 µM) of 0.241 and a relative viability ([2]; first compound 0.01 µM) of 0.827. The relative viability ([2]; first compound 0.1 µM) was 0.889, the relative viability ([2]; first compound 0.3162 µM) was 0.762 and the relative viability ([2]; first compound 1 µM) was 0.702. The relative viability ([3]; first compound 0.08 µM) was 0.691, the relative viability ([3]; first compound 0.253 µM) was 0.61 and the relative viability ([3]; first compound 0.8 µM) was 0.722. It also gave a relative viability ([3]; first compound 2.53 µM) of 0.78, a relative viability ([3]; first compound 8 µM) of 0.74 and a relative viability ([4]; first compound 0.01 µM) of 0.963. For the same cell line, the relative viability ([4]; first compound 0.1 µM) was 0.974, the relative viability ([4]; first compound 0.3162 µM) was 1.01 and the relative viability ([4]; first compound 1 µM) was 1.
In the case of NCI-H3122, the relative viability ([1]; first compound 0.08 µM) is reported as 0.696, the relative viability ([1]; first compound 0.253 µM) is reported as 0.814 and the relative viability ([1]; first compound 0.8 µM) is reported as 0.559. It also gave a relative viability ([1]; first compound 2.53 µM) of 0.786, a relative viability ([1]; first compound 8 µM) of 0.739 and a relative viability ([2]; first compound 0.01 µM) of 0.485. For the same cell line, the relative viability ([2]; first compound 0.1 µM) was 0.467, the relative viability ([2]; first compound 0.3162 µM) was 0.443 and the relative viability ([2]; first compound 1 µM) was 0.458. For the same cell line, the relative viability ([3]; first compound 0.08 µM) was 0.0976, the relative viability ([3]; first compound 0.253 µM) was 0.0883 and the relative viability ([3]; first compound 0.8 µM) was 0.117. It also gave a relative viability ([3]; first compound 2.53 µM) of 0.0934, a relative viability ([3]; first compound 8 µM) of 0.102 and a relative viability ([4]; first compound 0.01 µM) of 1.06. For the same cell line, the relative viability ([4]; first compound 0.1 µM) was 1.13, the relative viability ([4]; first compound 0.3162 µM) was 1.01 and the relative viability ([4]; first compound 1 µM) was 1.06.

From the supplement of paper PMC10307832
